{
  "source": "patent US5484804A",
  "about": "“Perhydroisoindole derivatives as antagonists of substance P” (Rhone-Poulenc Rorer S.A., priority 1992, dated 1996)",
  "type_in_all_cases": "in vivo",
  "key": {"[1]": {"tested_on": "hypotension induced by substance P", "test": "antagonism of hypotension induced by substance P", "details": "Cavia porcellus, iv; guinea-pig, hypotension induced by i.v. injection of 250 ng/kg of substance P; read-out: ED50, dose which reduces by 50% the hypotension", "protocol": "Injection of substance P in animals causes hypotension. The products studied by the technique of C. A. Maggi et al., J. Auton. […] The ED50, the dose which reduces by 50% the hypotension induced by an i.v. injection of 250 ng/kg of substance P, is determined."}, "formalin pain": {"tested_on": "formalin pain", "test": "formalin pain test", "details": "Cavia porcellus, po; guinea-pig, administered perorally 1 hour before the test"}, "[2]": {"tested_on": "bronchospasm induced by [Pro^9 ] substance P", "test": "inhibition of bronchospasm induced by [Pro9] substance P", "details": "Cavia porcellus, iv; guinea-pig, bronchospasm induced by 3 μg/kg i.v. of [Pro9] substance P; read-out: ED50, dose which reduces by 50% the bronchospasm", "excerpt": "Injection of substance P causes a bronchospasm in the animal. The bronchoconstriction induced in vivo in the guinea-pig by injection of substance P or a selective agonist of substance P:. [Pro^9 ] substance P, is studied by the technique of H. Konzett and R. Rosseler, Archiv. Exp. Path. Pharmak., 195, 71-74 (1940). This bronchoconstriction is inhibited by injection of a product according to the invention, which is evidence of an antiasthmatic activity. The ED50, the dose which reduces by 50% the bronchospasm induced by 3 μg/kg i.v. of [Pro^9 ] substance P, is determined. In this technique, the ED50 of the product of Example 1 is 0.7 mg/kg i.v."}, "[3]": {"tested_on": "increase in capillary permeability caused by septide (agonist of substance P)", "test": "inhibition of the increase in capillary permeability caused by septide", "details": "Cavia porcellus, guinea-pig", "excerpt": "The study of some isoindole derivatives of the general formula (I) by the technique of A. Saria et al., Arch."}},
  "data": [
    {"smiles": "COc1ccccc1[C@H](C)C(=O)N1C[C@@H]2[C@H](C1)C(c1ccccc1)(c1ccccc1)CC[C@@]2(O)c1ccccc1OC", "note": "[Example 1, (3aS,4S,7aS)-7,7-diphenyl-4-(2-methoxyphenyl)-2-[(S)-2-(2methoxyphenyl)propionyl]perhydroisoindol-4-ol]", "values": [
      {"measurement": "ED50", "setting": "[1]", "result": 0.15, "unit": "mg/kg"},
      {"measurement": "ED50", "setting": "formalin pain", "result": 11, "unit": "mg/kg"},
      {"measurement": "ED50", "setting": "[2]", "result": 0.7, "unit": "mg/kg"},
      {"measurement": "ED50", "setting": "[3]; iv", "result": 0.04, "unit": "mg/kg"},
      {"measurement": "ED50", "setting": "[3]; po", "result": 3.5, "unit": "mg/kg"}
    ]}
  ]
}
